According to patent publication US20100113523A1 (priority 2008, published 2010):

Assays:
[1] = Pharmacokinetic analysis in humans (serum and urine, DART TOF-MS); assay type: in vivo; settings: human, ingested in a mixture
Protocol: Five healthy consenting female adults ranging in age from 23 to 57 were took diets free of flavonoids and any NSAIDs. A certified individual collected blood samples at several time intervals between 0 and 480 min after compounds of the present invention were ingested in a mixture. Immediately after the time zero blood samples were collected, a single 100 mg dose of the composition was administered as a lozenge. Blood samples were handled with approved protocols and precautions, centrifuged to remove cells and the serum fraction was collected and frozen. Blood was not treated with heparin to avoid any analytical interference. Urine samples were collected from the same five subjects on a time course (0 to 8 h).
The cells were removed from the blood samples by centrifugation and the serum was collected. Serum samples were prepared for DART TOF-MS analysis by extraction with an equal volume of neat ethanol (USP) to minimize background of proteins, peptides, and polysaccharides present in serum. The ethanol extract was centrifuged for 10 min at 4° C., the supernatant was removed, concentrated to 200 μL volume, and 50 μL of an internal standard was added. Urine samples were not treated and used directly for DART TOF-MS. DART TOF-MS analyses were conducted as described above.

tryptase enzyme = molecular target: T1, tryptase enzyme (Homo sapiens, UniProt P20231); assay: Tryptase inhibition (cleavage of tosyl-gly-pro-lys-pNA, absorbance at 405 nm); assay type: biochemical; settings: relative to controls; 2 h at 37° C.
T1 construct: purchased Millipore Inc., Westbury, Mass
T1 sequence (P20231 31-275): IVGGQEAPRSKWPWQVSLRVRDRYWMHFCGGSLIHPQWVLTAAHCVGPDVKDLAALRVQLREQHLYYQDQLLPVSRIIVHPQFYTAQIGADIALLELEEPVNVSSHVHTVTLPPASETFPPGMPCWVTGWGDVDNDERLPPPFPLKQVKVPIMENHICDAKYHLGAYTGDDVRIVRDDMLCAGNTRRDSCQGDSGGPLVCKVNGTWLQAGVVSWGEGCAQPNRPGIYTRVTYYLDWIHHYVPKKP
Protocol: Tryptase activity was determined by monitoring the production of chromophore p-nitroaniline (pNA) generated by the cleavage of tosyl-gly-pro-lys-pNA by the tryptase enzyme according to the manufacturer's protocol (Millipore Inc., Westbury, Mass.). In a 96-well format, 10 μL of tryptase was added to 10 μL of sample, followed by 20 μL of tosyl-gly-pro-lys-pNA and 160 μL of 1× reaction buffer and incubated for 2 h at 37° C. After the incubation, absorbance at 405 nm was measured in each well using a Tecan M200 microplate reader.

Structure (SMILES)	time to appearance in the bloodstream (serum) after ingestion ([1]; single 100 mg lozenge) [min]	time to appearance in urine after ingestion ([1]; single 100 mg lozenge) [h]	time present in the serum post-ingestion ([1]; single 100 mg lozenge, sampling 0 to 480 min)	persistence in the urine post-ingestion ([1]; urine collected 0 to 8 h)	IC50 (tryptase enzyme) [µM]
CCCCCC/C=C/CN(c1ccc(C)cc1)c1ccc(S)cn1 [compound (V)]	≤ 10	≤ 1	up to 480 min	up to 8 h	
CCCCCC/C=C/CN(c1ccc(C)cc1)c1ccc(SSc2ccc(N(C/C=C/CCCCCC)c3ccc(C)cc3)nc2)cn1 [compound [7]]					789
